Test results taken from publication PMC6829886, “Inhibition of Non-Small Cell Lung Cancer Cells by Oxy210, an Oxysterol-Derivative that Antagonizes TGFβ and Hedgehog Signaling” (Cells, 2019).

Experiments:
A549 cells [1] = assay: Cell counting (proliferation) assay in A549 cells; assay type: cell-based, human; conditions: A549 cells, CP alone
Method: A549 and H2030 cells cultured in RPMI 1640 containing 5% FBS in 12 well-plates at 20% confluence were treated with Oxy210 for 6 days and then trypsinized, spun down and resuspended in fresh medium. For the Carboplatin (CP) and Oxy210 co-treatment experiments, A549 cells cultured in RPMI 1640 containing 2% FBS in 12 well-plates at 20% confluence were treated with CP at different concentrations in the presence or absence of Oxy210 for 6 days. For the TGFβ-induced drug resistance assay, A549 cells cultured in RPMI 1640 containing 2% FBS in 12 well-plates at 10% confluence were pre-treated with TGFβ1 alone or together with Oxy210 for 3 days, and then treated with 20 μM CP for 4 days. An aliquot of cell suspension was applied to a hemocytometer and the cells were then counted under a light microscope.
Statistical analyses were performed using the StatView 5 program (SAS Institute, Cary, NC, USA). All p values were calculated using ANOVA and Fisher’s projected least significant difference (PLSD) significance test. A value of p < 0.05 was considered significant. The IC 50 dose-response curves shown in Figure 4b and Figure 7a–c were modeled using a five-parameter logistic model. This model allows for asymmetric curves and automatically estimates the mean maximum and minimum response. Based on this model, IC 50 values were estimated corresponding to the dose halfway between min and max response. Models of dose versus response and dose versus log response were also evaluated (see Supplementary Materials). The R square statistic was computed as a measure of model fit.
Figure 7 Inhibition of NSCLC cell proliferation by Oxy210. A549 (a), (c) and H2030 (b) cells were treated with the test agents as indicated in RPMI 1640 containing 5% FBS for 5 days and then were trypsinized and counted as described in Methods and Materials section. Data from a representative experiment are reported as the mean of triplicate determinations ± SD (* p < 0.05 vs. control; ** p < 0.01 vs. control).

[2] = test system: TGFβ signaling in NIH3T3-E1 cells; assay: TGFβ target gene expression (Q-RT-PCR) in NIH3T3 cells; assay type: cell-based, mouse; conditions: for expression of CTGF induced by TGFβ: NIH3T3 cells, TGFβ 20 ng/mL, 48 h (Figure 4e); for TGFβ inhibitory properties: statement in Discussion
Method: Total RNA was extracted with the RNeasy Plus Mini Kit from Qiagen (Hilden, Germany) according to the manufacturer’s instructions. One microgram of RNA was reverse-transcribed using an iScript Reverse Transcription Supermix from Bio-Rad Laboratories (Hercules, CA, USA) to make single-stranded cDNA. The cDNAs were then mixed with Qi SYBR Green Supermix (Bio-Rad) for quantitative RT-PCR assay using a Bio-Rad I-cycler IQ quantitative thermocycler. All PCR samples were prepared in triplicate wells in a 96-well plate. After 40 cycles of PCR, melt curves were examined in order to ensure primer specificity. Fold changes in gene expression were calculated using the ΔΔCt method. Primers used for mouse were as follows: Oaz1 (5′-CCACTGCTTCGCCAGAGAG-3′) and (5′-CCCGGACCCAGGTTACTA-3′), Gli1 (5′- […]-3′ and 5′- GCT GATCCAGCCTAAGGTTCTC-3′), Ptch1 (5′-CCATCGGCGACAAGAACC-3′ and 5′-[…]-3′), Thbs1 (5′-[…]-3′ and 5′-CGGGGATCAGGTTGGCATT-3′), Cryab (5′-[…]-3′ and 5′-[…]-3′), Egr2 (5′-[…]-3′ and 5′-[…]-3′), CTGF (5′-GGGCCTCTTCTGCGATTTC-3′ and 5′-[…]-3′).
Figure 4 Inhibition of ligand-induced Hedgehog and TGFβ signaling in mouse fibroblast cells. NIH3T3 cells were pretreated for 2 h with Oxy210 or various inhibitors as indicated in DMEM containing 5% FBS. Next, cells were treated with CAPAN-1 conditioned medium (CM) in the absence or presence of oxysterols or inhibitors. After 72 h, RNA was extracted and analyzed by Q-RT-PCR for the expression of Hh target genes Gli1 and Ptch1 and normalized to Oaz1 expression (a,b). (c,e) NIH3T3 cells were treated in DMEM containing 0.1% BCS overnight and then pretreated for 2 h with the inhibitors as indicated in DMEM containing 0.1%BCS. The cells were then treated with TGFβ (20ng/mL) in the absence or presence of the compounds. After 48 h, RNA was extracted and analyzed by Q-RT-PCR for the expression of TGFβ target genes as indicated and normalized to Oaz1 expression. (d) NIH3T3 cells cultured in 24 well-plates were transfected with a Smad response element reporter (SBE-Luciferase) plasmid and a pTK-Renilla-Luciferase plasmid. 6 hrs after transfection, cells were treated with the test agents as indicated for 48 hrs. Luciferase activity was measured and normalized to the Renilla luciferase activity. Data from a representative experiment are reported as the mean of triplicate determinations ± SD (** p < 0.01 vs. CM (a,b) or TGFβ (c,d and e) treated cells; ## p < 0.01 vs. control).

[3] = Metabolic stability in human liver microsomes; assay type: in vitro ADME
[4] = Metabolic stability in mouse liver microsomes; assay type: in vitro ADME
Smo = test system: Smo; design: method as in PMID 24591126; conditions: cited from earlier work
Human TGFBR1 = biological target: T1, Human TGFBR1 (Homo sapiens, UniProt P36897); assay: TGFβ receptor I kinase inhibition assay (Eurofins); assay type: biochemical; conditions: vs. positive controls Cdk1/2 Inhibitor III and PKR Inhibitor
T1 construct: Human TGFBR1 (amino acid 200 to end); purchased Eurofins
T1 sequence (P36897 200-503 limits assumed): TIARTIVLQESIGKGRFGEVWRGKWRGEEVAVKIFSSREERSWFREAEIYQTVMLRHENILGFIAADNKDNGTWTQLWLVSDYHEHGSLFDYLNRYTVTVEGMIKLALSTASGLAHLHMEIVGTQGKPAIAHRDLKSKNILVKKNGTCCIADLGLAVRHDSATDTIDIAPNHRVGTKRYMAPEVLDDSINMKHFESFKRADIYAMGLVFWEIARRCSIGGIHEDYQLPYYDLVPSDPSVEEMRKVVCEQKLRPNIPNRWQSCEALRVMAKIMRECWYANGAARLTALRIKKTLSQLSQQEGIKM
Method: (§1) Effect of Oxy210 on inhibition of TGFβ receptors I and II kinase activity was assessed by Eurofins (Celle-L’Evescault, France). TGFBR1 (h): Human TGFBR1 (amino acid 200 to end) was incubated with 8 mM MOPS pH 7.0, 0.2 mM EDTA, 1 mM MnCl2, 2 mg/mL casein, 10 mM Magnesium acetate and […] (specific activity and concentration as required). The reaction was initiated by the addition of the Mg/ATP mix. After incubation for 40 min at room temperature, the reaction was stopped by the addition of phosphoric acid to a concentration of 0.5%. 10 μL of the reaction was then spotted onto a P30 filtermat and washed four times for 4 min in 0.425% phosphoric acid and once in methanol prior to drying and scintillation counting. TGFBR2 (h): Human TGFBR2 (amino acid 188-end) was incubated with 20 mM Tris/HCl pH 8.5, 0.2 mM EDTA, 0.33 mg/mL MBP, 10 mM Magnesium acetate and [9-33P-ATP] (specific activity and concentration as required). The reaction was initiated by the addition of the Mg/ATP mix. After incubation for 120 min at room temperature, the reaction was stopped by the addition of phosphoric acid to a concentration of 0.5%. […]
(§2) Figure 11 Inhibition of TGFβ-induced Smad2/3 phosphorylation and transcriptional activity. […] Luciferase activity was measured and normalized to the Renilla luciferase activity. […]

Human TGFBR2 = biological target: T2, Human TGFBR2 (Homo sapiens, UniProt P37173); assay: TGFβ receptor II kinase inhibition assay (Eurofins); assay type: biochemical; conditions: vs. positive controls Cdk1/2 Inhibitor III and PKR Inhibitor
T2 construct: Human TGFBR2 (amino acid 188-end); purchased Eurofins
T2 sequence (P37173 188-567 limits assumed): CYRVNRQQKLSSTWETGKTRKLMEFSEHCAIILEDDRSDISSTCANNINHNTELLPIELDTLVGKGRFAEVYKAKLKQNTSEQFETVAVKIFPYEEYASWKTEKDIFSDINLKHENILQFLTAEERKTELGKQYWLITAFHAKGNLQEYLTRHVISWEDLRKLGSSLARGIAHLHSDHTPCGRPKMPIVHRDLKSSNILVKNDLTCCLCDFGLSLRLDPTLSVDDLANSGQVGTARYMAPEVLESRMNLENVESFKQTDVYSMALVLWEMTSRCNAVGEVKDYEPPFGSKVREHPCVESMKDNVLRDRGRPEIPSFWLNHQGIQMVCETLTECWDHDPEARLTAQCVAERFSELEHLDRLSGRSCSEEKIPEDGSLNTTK
Method: as §1, §2

[5] = test system: TGFβ induced activity of SBE-luciferase reporter; assay: SBE-luciferase (Smad response-element) reporter assay in NIH3T3-E1 cells; assay type: cell-based, mouse; conditions: 48 hrs
Method: NIH3T3-E1 cells cultured in 24 well-plates at 90% confluence were transiently transfected with 0.1 μg of Smad response-element reporter (SBE-Luciferase) plasmid (Qiagen), or with 0.1 μg of Gli response-element reporter (pGL3b-8xGli-Luciferase) plasmid, and 10 ng of pSV40-Renilla-Luciferase plasmid (Promega, Madison, WI, USA) with or without co-transfection with 10ng of Gli1 overexpression vector, pSRα-Gli1 using a Lipofectamine LTX Plus transfection reagent, as previously described [23]. […] 6 hrs after transfection, cells were treated with test agents for 72 h. […] Twenty-four hours after transfection, cells were treated with test agents for 20 h. Then the firefly and Renilla luciferase activities were measured using a dual luciferase kit (Promega) and a GloMax-96 Microplate Luminometer (Promega) or a plate reader-SpectraMax iD3 (Molecular Devices, San Jose, CA, USA). The firefly luciferase activities were normalized to the Renilla luciferase activities.

A549 cells [6] = test system: A549 cells; design: method as in PMID 15967103; conditions: consistent with own observations; cited from earlier work

[NH2][Pt]1([NH2])[O]C(=O)C2(CCC2)C(=O)[O]1 [CP, Carboplatin, reference compound]
IC10 Estimate, dataset 4.1 - Fig 7c - CP (A549 cells [1]; original scale Y): 0.66 µM
IC90 (A549 cells [1]; original scale Y, read-out: IC90 Estimate, dataset 4.1 - Fig 7c - CP): 40.7 µM
IC50 (A549 cells [1]; ± SE, read-out: IC50 of CP): 6.72 ± 0.72 µM

CS(=O)(=O)c1ccc(C(=O)Nc2ccc(Cl)c(-c3ccccn3)c2)c(Cl)c1 [GDC0449]
expression of CTGF induced by TGFβ [2]: only Oxy210 robustly inhibited

CC(C)CC[C@@H](O)[C@](C)(O)[C@H]1CC[C@H]2[C@@H]3CC=C4C[C@@H](O)CC[C@]4(C)[C@H]3CC[C@]12C [Oxy16, (2R,3R)-2-((3S,8S,9S,10R,13S,14S,17S)-3-hydroxy-10,13-dimethyl-2,3,4,7,8,9,10,11,12,13,14,15,16,17-tetradecahydro-1H-cyclopenta[a]phenanthren-17-yl)-6-methylheptane-2,3-diol, reference compound]
TGFβ inhibitory properties [2]: devoid of TGFβ inhibitory properties
half-life ([3]; human, liver microsomes, read-out: HLM, Half-Life): < 15 min
remaining at 1 h ([3]; read-out: HLM, % Remaining after 60 min): 6%
remaining at 1 h ([4]; read-out: MLM, % Remaining after 60 min): 5%
half-life ([4]; read-out: MLM, Half-Life): 14 min
Smo binding affinity (Smo): lack of detectable Smo binding affinity

C[C@]12CC[C@H](O)C[C@@H]1CC[C@@H]1[C@@H]2CC[C@@]2(C)[C@H]1CC[C@@H]2[C@](C)(O)CCc1ccc(F)cc1 [Oxy186, reference compound]
expression of CTGF induced by TGFβ [2]: only Oxy210 robustly inhibited
TGFβ inhibitory properties [2]: devoid of TGFβ inhibitory properties
inhibitory activity on TβRI in functional kinase assay (Human TGFBR1): did not display significant inhibitory activity
inhibitory activity on TβRII in functional kinase assay (Human TGFBR2): did not display significant inhibitory activity

NC(=O)c1ccc(-c2nc(-c3ccc4c(c3)OCO4)c(-c3ccccn3)[nH]2)cc1 [SB431542, reference compound]
TGFβ induced activity of SBE-luciferase reporter [5]: significantly inhibited
effect on proliferation of A549 cells (A549 cells [6]): does not lessen the proliferation of A549 cells
